These results are taken from PMC4579270, “Identification and Characterization of an Irreversible Inhibitor of CDK2” (Chemistry & Biology, 2015).

Like-named read-outs stand apart in the source and are kept apart here.

For orientation: remaining activity means the signal under treatment as a percentage of the control signal.

One assay deals with T1, CHK1 (Homo sapiens, UniProt O14757).
T1 sequence (O14757 1-476): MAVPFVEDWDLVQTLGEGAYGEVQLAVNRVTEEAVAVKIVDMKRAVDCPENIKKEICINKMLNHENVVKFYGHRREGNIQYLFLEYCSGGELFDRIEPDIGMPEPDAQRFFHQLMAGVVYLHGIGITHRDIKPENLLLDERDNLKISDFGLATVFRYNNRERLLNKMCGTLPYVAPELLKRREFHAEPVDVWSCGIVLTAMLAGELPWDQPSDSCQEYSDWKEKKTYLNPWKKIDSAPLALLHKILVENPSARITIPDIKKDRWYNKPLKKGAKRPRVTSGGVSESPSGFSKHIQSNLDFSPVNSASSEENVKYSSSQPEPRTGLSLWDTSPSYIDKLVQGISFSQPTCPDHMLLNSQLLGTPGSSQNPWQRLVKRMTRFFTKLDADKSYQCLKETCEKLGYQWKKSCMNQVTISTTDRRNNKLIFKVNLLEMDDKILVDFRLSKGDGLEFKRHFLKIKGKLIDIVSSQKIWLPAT
The experiment in a line: Dundee kinase screen re-test (standard format and 4 hour pre-incubation). Format: biochemical. To be noted: CHK1, 0.5µM. On the procedure: (§1) Prior to determining its cellular activity, we carried out a screen to assess its selectivity against a panel of 131 protein kinases under conditions that would not distinguish between a reversible or irreversible mode of action. […] These 13 kinases and 29 additional kinases, selected for their known sensitivity to other inhibitors within the purine series, were then tested in a modified screening format in which the assay was repeated following a 4-hr pre-incubation (Table S3B). […] However, conformational flexibility around the active site may promote such an interaction with a residue from another part of the structure ([Martin et al., 2012]).
(§2) Table S3, Related to Figure 4. NCL-0006300 protein kinase selectivity. […]
(§3) Dundee protein kinase screen (Bain et al., 2007). […]
(§4) (B) Selected kinases were re-tested in the Dundee kinase screen against NU6300 at a single concentration of 0.5 µM both in the standard assay format and following a 4 hour pre-incubation in the presence of NU6300. Kinases which have very low activity after the 4 hour incubation so that results might not be wholly reliable are boxed in salmon. Kinases where the activity after a 4 hour pre-incubation is < 50% that in the standard assay format are highlighted in red.

The next assay has as its target T2, ASK1 (Homo sapiens, UniProt Q99683).
T2 sequence (Q99683 1-1374): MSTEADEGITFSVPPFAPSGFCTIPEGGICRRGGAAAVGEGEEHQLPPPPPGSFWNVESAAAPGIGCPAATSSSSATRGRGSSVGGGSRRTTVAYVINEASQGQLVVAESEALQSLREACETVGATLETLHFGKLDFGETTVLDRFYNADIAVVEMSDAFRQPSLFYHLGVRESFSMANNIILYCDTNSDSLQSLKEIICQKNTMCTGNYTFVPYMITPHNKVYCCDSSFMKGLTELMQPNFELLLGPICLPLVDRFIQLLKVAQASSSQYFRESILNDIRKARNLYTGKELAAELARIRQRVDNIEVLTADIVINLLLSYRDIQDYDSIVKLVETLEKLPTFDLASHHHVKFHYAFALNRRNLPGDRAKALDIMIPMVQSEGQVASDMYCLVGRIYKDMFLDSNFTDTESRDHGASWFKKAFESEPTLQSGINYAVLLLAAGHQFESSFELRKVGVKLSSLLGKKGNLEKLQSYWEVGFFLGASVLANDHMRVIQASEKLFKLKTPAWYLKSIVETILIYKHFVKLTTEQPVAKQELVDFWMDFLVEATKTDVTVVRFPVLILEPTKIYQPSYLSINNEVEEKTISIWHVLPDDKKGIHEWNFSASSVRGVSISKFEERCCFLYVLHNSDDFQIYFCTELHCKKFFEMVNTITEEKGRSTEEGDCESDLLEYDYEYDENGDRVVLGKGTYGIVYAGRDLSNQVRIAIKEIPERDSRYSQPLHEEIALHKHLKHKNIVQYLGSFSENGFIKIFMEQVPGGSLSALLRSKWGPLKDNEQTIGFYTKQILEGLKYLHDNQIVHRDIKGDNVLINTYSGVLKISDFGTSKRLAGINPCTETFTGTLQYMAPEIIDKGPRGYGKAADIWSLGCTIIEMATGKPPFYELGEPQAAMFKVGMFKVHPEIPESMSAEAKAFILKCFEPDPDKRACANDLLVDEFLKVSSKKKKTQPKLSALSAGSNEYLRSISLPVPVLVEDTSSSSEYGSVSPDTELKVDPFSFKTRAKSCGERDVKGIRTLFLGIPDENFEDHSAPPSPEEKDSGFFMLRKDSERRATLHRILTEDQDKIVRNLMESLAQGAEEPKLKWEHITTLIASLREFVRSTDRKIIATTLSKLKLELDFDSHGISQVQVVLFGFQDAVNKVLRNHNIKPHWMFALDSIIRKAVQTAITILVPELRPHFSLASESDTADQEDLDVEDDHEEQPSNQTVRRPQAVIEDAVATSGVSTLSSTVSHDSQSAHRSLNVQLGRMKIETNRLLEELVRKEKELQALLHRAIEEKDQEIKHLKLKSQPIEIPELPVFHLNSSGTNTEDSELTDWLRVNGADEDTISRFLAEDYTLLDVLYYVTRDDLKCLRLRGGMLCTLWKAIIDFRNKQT
The description is as above. It counts as biochemical. The conditions noted are these: ASK1, 0.5µM. As to the method:
as §1, §2, §3, §4

The mark [1] stands for this setting: 4hr RT preincubation, read-out: %Remaining activity at 0.5µM NU6300 - 4hr RT preincubation.
The mark [2] stands for this setting: usual format, read-out: %Remaining activity at 0.5µM NU6300 - Usual assay format.

In the case of `C=CS(=O)(=O)c1ccc(Nc2nc(OCC3CCCCC3)c3nc[nH]c3n2)cc1` [NU6300, 6-(cyclohexylmethoxy)-N-(4-(vinylsulfonyl)phenyl)-9H-purin-2-amine], the remaining activity at 0.5 µM turned out to be 42% on CHK1 (setting [1]), 72% on CHK1 (setting [2]), 102% at ASK1 (setting [1]) and 89% on ASK1 (setting [2]).
